Results on 24 compounds are retold here after patent US9045461B2, “Phenyl-heteroaryl derivatives and methods of use thereof” (TransTech Pharma, LLC, priority 2010, dated 2015).

What is called IC50 is the concentration at which inhibition is half-maximal.

Experiment [1] has as its target T1, sRAGE binding to S100b (Homo sapiens, UniProt Q15109).
T1 construct: extracellular domain can be isolated by proteolysis of RAGE to generate soluble RAGE (sRAGE) comprised of the V and C domains
The experiment is described as follows: RAGE binding assay (ELISA), S100b as the RAGE ligand. The following applies: compounds tested in hydrochloride salt form, concentration at which 50% signal has been inhibited. The procedure: (§1) The following assay method may be used to identify compounds of Formula (I) or pharmaceutically acceptable salts thereof which are useful as inhibitors of binding of physiological RAGE ligands, such as S100b and β-amyloid, to RAGE.
(§2) S100b, β-amyloid, or CML (500 ng/100 μL/well) in 100 mM sodium bicarbonate/sodium carbonate buffer (pH 9.8) is loaded onto the wells of a NUNC Maxisorp flat bottom 96-well microtitre plate. The plate is incubated at 4° C. overnight. The wells are aspirated and treated with 50 mM imidazole buffer saline (pH 7.2) (with 5 mM CaCl2/MgCl2) containing 1% bovine serum albumin (BSA) (300 μL/well) for 1 h at RT. The wells are aspirated.
(§3) Test compounds are dissolved in nanopure water (concentration: 10-100 μM). DMSO may be used as co-solvent. 25 μL of test compound solution in 4% DMSO is added, along with 75 μL sRAGE (6 nM FAC) to each well and samples are incubated for 1 h at 37° C. The wells are washed several times with 155 mM NaCl pH 7.2 buffer saline and are soaked for several seconds between each wash.
(§4) Non-radioactive detection is performed by adding:
(§5) 10 μL Biotinylated goat F(ab′)2 Anti-mouse IgG. (8.0×10-4 mg/mL, FAC), 5 μL Alk-phos-Streptavidin (3×10-3 mg/mL FAC), 0.42 μL per 5 mL Monoclonal antibody for sRAGE (FAC 6.0×10-3 mg/mL) to 5 mL 50 mM imidazole buffer saline (pH 7.2) containing 0.2% bovine serum albumin and 5 mM CaCl2. The mixture is incubated for 30 minutes at RT.
(§6) 100 μL of complex is added to each well and incubation is allowed to proceed at rt for 1 h. Wells are washed several times with wash buffer and soaked several seconds between each wash. 100 μL 1 mg/mL (pNPP) in 1 M diethanolamine (pH adjusted to 9.8 with HCl) is added. Color is allowed to develop in the dark for 30 min to 1 h at rt. The reaction is quenched with 10 μL of stop solution (0.5-1.0 N NaOH in 50% ethanol) and the absorbance is measured spectrophotometrically with a microplate reader at 405 nm.
(§7) The IC50 (μM) value in the ELISA assay represents the concentration of compound at which 50% signal has been inhibited.
On the technique in general: An ELISA detects its analyte on a solid surface through an enzyme-linked reagent.

The target of experiment [2] is T2, sRAGE binding to β-amyloid (Homo sapiens, UniProt Q15109).
T2 construct: extracellular domain can be isolated by proteolysis of RAGE to generate soluble RAGE (sRAGE) comprised of the V and C domains
The experiment is described as follows: RAGE binding assay (ELISA), β-amyloid as the RAGE ligand. The note with it: compounds tested in hydrochloride salt form, concentration at which 50% signal has been inhibited. The procedure:
as §1, §2, §3, §4, §5, §6, §7

Counter-ions that a name gives are not always drawn.

T1 sequence (Q15109 23-342 limits assumed): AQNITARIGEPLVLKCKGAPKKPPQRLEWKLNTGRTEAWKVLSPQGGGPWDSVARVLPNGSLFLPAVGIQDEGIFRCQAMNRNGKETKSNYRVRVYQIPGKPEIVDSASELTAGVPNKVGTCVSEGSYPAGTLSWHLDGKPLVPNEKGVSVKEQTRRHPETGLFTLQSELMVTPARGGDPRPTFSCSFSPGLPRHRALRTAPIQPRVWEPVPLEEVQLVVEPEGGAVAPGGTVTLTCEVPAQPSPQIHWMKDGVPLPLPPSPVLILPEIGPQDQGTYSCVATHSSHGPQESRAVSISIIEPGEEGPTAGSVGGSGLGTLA
T2 sequence (Q15109 23-342 limits assumed): as above

Take `CCCCc1nnc(OC2CCN(CCc3nnc(C)o3)CC2)cc1-c1ccc(OC2CCCCC2)cc1` [Example 20, 3-Butyl-4-(4-cyclohexyloxy-phenyl)-6-{1-[2-(5-methyl-[1,3,4]oxadiazol-2-yl)-ethyl]-piperidin-4-yloxy}-pyridazine dihydrochloride]: the figures for the IC50 in experiment [1] and in experiment [2] were 1.46 µM and 2.23 µM, respectively.
The corresponding values for `CCCCc1nnc(OC2CCN(C)CC2)cc1-c1ccc(OCc2cccnn2)cc1` [Example 53, 3-butyl-6-(1-methyl-piperidin-4-yloxy)-4-[4-(pyridazin-3-ylmethoxy)-phenyl]-pyridazine trihydrochloride] are 2.51 µM and 2.02 µM.
The corresponding values for `CCCCc1nnc(OC2CCN(C)CC2)cc1-c1ccc(OC2CCCCC2)c(-c2ncco2)c1` [Example 65, 3-Butyl-4-(4-cyclohexyloxy-3-oxazol-2-yl-phenyl)-6-(1-methyl-piperidin-4-yloxy)-pyridazine dihydrochloride salt] are 2.12 µM and 1.78 µM.
The corresponding values for `CCCCc1nnc(C(=O)NC2CCN(C)CC2)cc1-c1ccc(OCc2ccccc2)cc1` [Example 80, 5-(4-Benzyloxy-phenyl)-6-butyl-pyridazine-3-carboxylic acid (1-methyl-piperidin-4-yl)-amide dihydrochloride] are 1.25 µM and 1.25 µM.
For the compound `CCCCc1nnc(OC2CCN(C)CC2)cc1-c1ccc(OC2CCCCC2)c(C#N)c1` [Example 67, 5-[3-Butyl-6-(1-methyl-piperidin-4-yloxy)-pyridazin-4-yl]-2-cyclohexyloxy-benzonitrile dihydrochloride], the IC50 worked out at 1.7 µM in experiment [1] and 3.2 µM in experiment [2].
The corresponding values for `CCCCc1nnc(OC[C@H]2CN(C)CC[C@H]2O)cc1-c1ccc(OC2CCCCC2)cc1` (racemic) [Example 43, (±)-cis-3-[6-Butyl-5-(4-cyclohexyloxy-phenyl)-pyridazin-3-yloxymethyl]-1-methyl-piperidin-4-ol dihydrochloride] are 2.07 µM and 0.83 µM.
The corresponding values for `CCCCc1nnc(OC2CCN(C)CC2)cc1-c1ccc(OC2CCCC2)cc1` [Example 51, 3-butyl-4-(4-cyclopentyloxy-phenyl)-6-(1-methyl-piperidin-4-yloxy)-pyridazine dihydrochloride] are 2.94 µM and 2.62 µM.
On to `CCCCc1nnc(OCCCN2CCOCC2)cc1-c1ccc(OCc2ccccc2)cc1` [Example 8, 4-{3-[5-(4-Benzyloxy-phenyl)-6-butyl-pyridazin-3-yloxy]-propyl}-morpholine dihydrochloride], for which the IC50 worked out at 4.84 µM in experiment [1] and 3.72 µM in experiment [2].
The corresponding values for `CCCCc1nnc(OC2CCN(C)CC2)cc1-c1ccc(OC2CCCCC2)c(N2CCCS2(=O)=O)c1` [Example 75, 3-Butyl-4-[4-cyclohexyloxy-3-(1,1-dioxo-1lambda*6*-isothiazolidin-2-yl)-phenyl]-6-(1-methyl-piperidin-4-yloxy)-pyridazine dihydrochloride] are 2.19 µM and 2.85 µM.
With `CCCCc1nnc(C(=O)N2CCO[C@H](CN(C)C)C2)cc1-c1ccc(OC2CCCCC2)cc1` [Example 98, [6-Butyl-5-(4-cyclohexyloxy-phenyl)-pyridazin-3-yl]-((R)-2-dimethylaminomethyl-morpholin-4-yl)-methanone dihydrochloride], the IC50 in experiment [1] is 1.99 µM; in experiment [2] it was 1.62 µM.
For `CCCCc1nnc(OC[C@H]2CN(C)C[C@@H]2CO)cc1-c1ccc(OCc2ccccc2)cc1` (racemic) [Example 6, (±)-trans-{4-[5-(4-Benzyloxy-phenyl)-6-butyl-pyridazin-3-yloxymethyl]-1-methyl-pyrrolidin-3-yl}-methanol dihydrochloride] the same measures were 2.13 µM and 2.33 µM.
The corresponding values for `CCCCc1nnc(OC[C@H]2CCN(C)C[C@@H]2OC)cc1-c1ccc(OC2CCCCC2)cc1` (racemic) [Example 36, (±)-trans-3-Butyl-4-(4-cyclohexyloxy-phenyl)-6-(3-methoxy-1-methyl-piperidin-4-ylmethoxy)-pyridazine dihydrochloride] are 0.96 µM and 0.96 µM.
For `CCCCc1nnc(OC[C@H]2CN(C)CC[C@@H]2O)cc1-c1ccc(OC2CCCCC2)cc1` (racemic) [Example 47, (±)-trans-3-[6-Butyl-5-(4-cyclohexyloxy-phenyl)-pyridazin-3-yloxymethyl]-1-methyl-piperidin-4-ol dihydrochloride] the same measures were 2.93 µM and 2.5 µM.
Consider `CCCCc1nnc(C(=O)NCC2(O)CCN(C)CC2)cc1-c1ccc(OC2CCCCC2)cc1` [Example 94, 6-Butyl-5-(4-cyclohexyloxy-phenyl)-pyridazine-3-carboxylic acid (4-hydroxy-1-methyl-piperidin-4-ylmethyl)-amide dihydrochloride], for which the IC50 in experiment [1] is 2.55 µM; in experiment [2], 1.95 µM.
Turning to `CCCCc1nnc(C(=O)NC[C@@H]2CCN(C)C[C@@H]2OC)cc1-c1ccc(OC2CCCCC2)cc1` (racemic) [Example 104, (±)-cis-6-Butyl-5-(4-cyclohexyloxy-phenyl)-pyridazine-3-carboxylic acid (3-methoxy-1-methyl-piperidin-4-ylmethyl)-amide dihydrochloride], the IC50 in experiment [1] was 1.12 µM; in experiment [2] it was 1.61 µM.
For `CCCCc1nnc(OC2CCN(C)CC2)cc1-c1ccc(OC2CCCCC2)c(N2CCCC2=O)c1` [Example 68, 1-{5-[3-Butyl-6-(1-methyl-piperidin-4-yloxy)-pyridazin-4-yl]-2-cyclohexyloxy-phenyl}-pyrrolidin-2-one dihydrochloride] the same measures were 2.04 µM and 2.49 µM.
Take `CCCCc1nnc(OC2CCN(CCc3nnn(C)n3)CC2)cc1-c1ccc(OC2CCCCC2)cc1` [Example 21, 3-Butyl-4-(4-cyclohexyloxy-phenyl)-6-{1-[2-(2-methyl-2H-tetrazol-5-yl)-ethyl]-piperidin-4-yloxy}-pyridazine dihydrochloride]: the IC50 in experiment [1] amounted to 1.34 µM; in experiment [2] it was 1.53 µM.
For `CCCCc1nnc(OCC[C@H]2CCCCN2C)cc1-c1ccc(OC2CCCCC2)cc1` [Example 32, 3-Butyl-4-(4-cyclohexyloxy-phenyl)-6-[2-((R)-1-methyl-piperidin-2-yl)-ethoxy]-pyridazine dihydrochloride] the same measures were 2.78 µM and 1.78 µM.
For `CN1CCC(Oc2cc(-c3ccc(OC4CCCCC4)cc3)c(C3CCCCC3)nn2)CC1` [Example 60, 3-cyclohexyl-4-(4-cyclohexyloxy-phenyl)-6-(1-methyl-piperidin-4-yloxy)-pyridazine dihydrochloride] the same measures were 1.13 µM and 1.83 µM.
For `CCCCc1nnc(C(=O)NC[C@@H](O)CN(C)C)cc1-c1ccc(OC2CCCCC2)cc1` [Example 88, 6-Butyl-5-(4-cyclohexyloxy-phenyl)-pyridazine-3-carboxylic acid ((R)-3-dimethylamino-2-hydroxy-propyl)-amide dihydrochloride] the same measures were 2.03 µM and 2.46 µM.
For the compound `CCCCc1nnc(C(=O)NCC2=CCN(C)CC2)cc1-c1ccc(OC2CCCCC2)cc1` [Example 108, 6-Butyl-5-(4-cyclohexyloxy-phenyl)-pyridazine-3-carboxylic acid (1-methyl-1,2,3,6-tetrahydro-pyridin-4-ylmethyl)-amide dihydrochloride], the figures for the IC50 in experiment [1] and in experiment [2] were 1.17 µM and 0.86 µM, respectively.
For the compound `CCCCc1c(-c2ccc(OC3CCCCC3)cc2)cc(OC2CCN(C)CC2)n[n+]1[O-]` [Example 40, 3-Butyl-4-(4-cyclohexyloxy-phenyl)-6-(1-methyl-piperidin-4-yloxy)-pyridazine 2-oxide hydrochloride], the IC50 in experiment [1] was determined as 2.98 µM; in experiment [2] it was 2.18 µM.
The corresponding values for `CCCCc1nnc(OCC2(O)CCN(C)CC2)cc1-c1ccc(OCc2ccccc2)cc1` [Example 11, 4-[5-(4-Benzyloxy-phenyl)-6-butyl-pyridazin-3-yloxymethyl]-1-methyl-piperidin-4-ol dihydrochloride] are 5.74 µM and 3.23 µM.
Regarding `CN1CCC(Oc2cc(-c3ccc(OCc4ccccc4)cc3)c(C(F)(F)F)nn2)CC1` [Example 13, 4-(4-Benzyloxy-phenyl)-6-(1-methyl-piperidin-4-yloxy)-3-trifluoromethyl-pyridazine dihydrochloride], the IC50 in experiment [1] is 2.57 µM; in experiment [2], 2.62 µM.
